Experimental data from PubChem BioAssay AID330 (DTP/NCI, 2004).
Several values for one entry are separate records, joined by “and”; a condition that tells them apart may be missing. Equal values may be shown once. Inconclusive results and toxic doses are left out.

Test system: P388 leukemia ip, CD2F1 mice, survival T/C
Assay: NCI In Vivo Anticancer Drug Screen. Data for tumor model P388 Leukemia (intraperitoneal) in CD2F1 (CDF1) mice
Details: endpoint: median survival time, higher = longer survival
Method in brief: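 Mice carrying the transplanted tumor received test compound or vehicle. Survival was recorded in each group, and the value is the treated-group measurement divided by that of the vehicle-treated control group.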

[1] = dose: 50.0 mg/kg/injection, schedule: Q01DX005 (ip), vehicle: saline
[2] = dose: 100.0 mg/kg/injection, schedule: Q01DX005 (ip), vehicle: saline
[3] = dose: 25.0 mg/kg/injection, schedule: Q01DX009 (ip), vehicle: saline with Tween-80
[4] = dose: 50.0 mg/kg/injection, schedule: Q01DX009 (ip), vehicle: saline with Tween-80
[5] = dose: 100.0 mg/kg/injection, schedule: Q01DX009 (ip), vehicle: saline with Tween-80
[6] = dose: 200.0 mg/kg/injection, schedule: Q01DX009 (ip), vehicle: saline with Tween-80
[7] = dose: 100.0 mg/kg/injection, schedule: Q01DX009 (ip), vehicle: saline

CCC(/C=N/N=C(N)N)=N\N=C(N)N
T/C [1]: 110 % of control
T/C [2]: 100 % of control

COc1cc(/C=C2/SC(=S)NC2=O)cc(OC)c1OC
T/C [3]: 100 % of control
T/C [4]: 102 % of control
T/C [5]: 96 % of control
T/C [6]: 96 % of control

CCC(=O)c1ccc(O)c(O)c1
T/C [4]: 104 % of control
T/C [5]: 105 % of control

O=C(CBr)Nc1ccc(Cc2ccc(NC(=O)CBr)cc2)cc1
T/C (dose: 100.0 mg/kg/injection, schedule: Q01DX001 (ip), vehicle: saline with Tween-80): 99 % of control
T/C (dose: 200.0 mg/kg/injection, schedule: Q01DX001 (ip), vehicle: saline with Tween-80): 93 % of control
T/C (dose: 400.0 mg/kg/injection, schedule: Q01DX001 (ip), vehicle: saline with Tween-80): 94 % of control

COc1cc2c(c(OC)c1OC)-c1ccc(SC)c(=O)cc1[C@@H](NC(=O)CO)CC2
T/C (dose: 0.1 mg/kg/injection, schedule: Q01DX009 (ip), vehicle: other): 150 % of control
T/C (dose: 0.2 mg/kg/injection, schedule: Q01DX009 (ip), vehicle: other): 157 % of control and 172 % of control

O=[N+]([O-])c1ccc(S(=O)C2CCCCC2Cl)c([N+](=O)[O-])c1 (stereo not drawn)
T/C (dose: 100.0 mg/kg/injection, schedule: Q04DX002 (ip), vehicle: Klucel (hydroxypropylcellulose) (HPC)): 110 % of control
T/C (dose: 200.0 mg/kg/injection, schedule: Q04DX002 (ip), vehicle: Klucel (hydroxypropylcellulose) (HPC)): 113 % of control

CC1(C)CCC/C(=C\c2ccccc2)C1(O)c1ccccn1 (stereo not drawn)
T/C [4]: 97 % of control
T/C [5]: 98 % of control
T/C [6]: 100 % of control

Nc1ccccc1.O=C([CH-]C(=O)C(F)(F)F)c1ccccc1.O=C([CH-]C(=O)C(F)(F)F)c1ccccc1.O=C([CH-]C(=O)C(F)(F)F)c1ccccc1.O=C([CH-]C(=O)C(F)(F)F)c1ccccc1.[Eu+3]
T/C (dose: 100.0 mg/kg/injection, schedule: Q01DX009 (ip), vehicle: Klucel (hydroxypropylcellulose) (HPC)): 100 % of control
T/C (dose: 200.0 mg/kg/injection, schedule: Q01DX009 (ip), vehicle: Klucel (hydroxypropylcellulose) (HPC)): 103 % of control

COc1ccc(CO)cc1O
T/C [7]: 105 % of control and 97 % of control
T/C (dose: 200.0 mg/kg/injection, schedule: Q01DX009 (ip), vehicle: saline): 104 % of control and 107 % of control
T/C (dose: 400.0 mg/kg/injection, schedule: Q01DX009 (ip), vehicle: saline): 104 % of control
T/C (dose: 600.0 mg/kg/injection, schedule: Q01DX009 (ip), vehicle: saline): 95 % of control and 96 % of control

COc1ccccc1-n1c(Cc2cccc3ccccc23)nnc1SCC(=O)O
T/C (dose: 50.0 mg/kg/injection, schedule: Q01DX005 (ip), vehicle: Klucel (hydroxypropylcellulose) (HPC)): 100 % of control
T/C (dose: 100.0 mg/kg/injection, schedule: Q01DX005 (ip), vehicle: Klucel (hydroxypropylcellulose) (HPC)): 100 % of control
T/C (dose: 200.0 mg/kg/injection, schedule: Q01DX005 (ip), vehicle: Klucel (hydroxypropylcellulose) (HPC)): 100 % of control

CCCS(=N)(=O)CCC(N)C(=O)O (stereo not drawn)
T/C (dose: 25.0 mg/kg/injection, schedule: Q01DX005 (ip), vehicle: saline): 93 % of control
T/C [1]: 98 % of control
T/C [2]: 107 % of control
T/C (dose: 200.0 mg/kg/injection, schedule: Q01DX005 (ip), vehicle: saline): 112 % of control

CN(C)P(=O)(N(C)C)N1CCC1
T/C (dose: 50.0 mg/kg/injection, schedule: Q01DX009 (ip), vehicle: saline): 104 % of control
T/C [7]: 112 % of control

CC1(C)CC(=O)C(CC2C(=O)CC(C)(C)CC2=O)C(=O)C1
T/C [3]: 87 % of control
T/C [4]: 97 % of control
T/C [5]: 103 % of control
T/C [6]: 95 % of control

CC1(C)N=C(N)N=C(N)N1c1ccc(CNC(=O)Nc2ccc(S(=O)(=O)F)cc2)c(Cl)c1
T/C (dose: 132.0 mg/kg/injection, schedule: Q04DX003 (ip), vehicle: saline with Tween-80): 154 % of control
T/C (dose: 200.0 mg/kg/injection, schedule: Q04DX003 (ip), vehicle: saline with Tween-80): 154 % of control

C=CCSc1nc2ccc(N=Cc3ccc([N+](=O)[O-])cc3)cc2s1
T/C (dose: 6.25 mg/kg/injection, schedule: Q01DX009 (ip), vehicle: Klucel (hydroxypropylcellulose) (HPC)): 99 % of control
T/C (dose: 12.5 mg/kg/injection, schedule: Q01DX009 (ip), vehicle: Klucel (hydroxypropylcellulose) (HPC)): 98 % of control
T/C (dose: 25.0 mg/kg/injection, schedule: Q01DX009 (ip), vehicle: Klucel (hydroxypropylcellulose) (HPC)): 105 % of control

CC(=O)Oc1cc2c3c(c1)-c1c(ccc(OC(C)=O)c1OC(C)=O)CC3NCC2 (stereo not drawn)
T/C (dose: 3.13 mg/kg/injection, schedule: Q04DX003 (ip), vehicle: DMSO): 101 % of control
T/C (dose: 6.25 mg/kg/injection, schedule: Q04DX003 (ip), vehicle: DMSO): 101 % of control
T/C (dose: 12.5 mg/kg/injection, schedule: Q04DX003 (ip), vehicle: DMSO): 103 % of control
T/C (dose: 25.0 mg/kg/injection, schedule: Q04DX003 (ip), vehicle: DMSO): 108 % of control
T/C (dose: 50.0 mg/kg/injection, schedule: Q04DX003 (ip), vehicle: DMSO): 108 % of control
T/C (dose: 100.0 mg/kg/injection, schedule: Q04DX003 (ip), vehicle: DMSO): 99 % of control
